{
  "source": "ChEMBL document CHEMBL5465560",
  "about": "“Selectivity Literature for EUbOPEN Chemogenomic Library” (2024)",
  "key": {"[1]": {"biological_target": "T1, Interleukin-1 receptor-associated kinase 3 (Homo sapiens) (UniProt Q9Y616)", "T1 sequence (whole entry)": "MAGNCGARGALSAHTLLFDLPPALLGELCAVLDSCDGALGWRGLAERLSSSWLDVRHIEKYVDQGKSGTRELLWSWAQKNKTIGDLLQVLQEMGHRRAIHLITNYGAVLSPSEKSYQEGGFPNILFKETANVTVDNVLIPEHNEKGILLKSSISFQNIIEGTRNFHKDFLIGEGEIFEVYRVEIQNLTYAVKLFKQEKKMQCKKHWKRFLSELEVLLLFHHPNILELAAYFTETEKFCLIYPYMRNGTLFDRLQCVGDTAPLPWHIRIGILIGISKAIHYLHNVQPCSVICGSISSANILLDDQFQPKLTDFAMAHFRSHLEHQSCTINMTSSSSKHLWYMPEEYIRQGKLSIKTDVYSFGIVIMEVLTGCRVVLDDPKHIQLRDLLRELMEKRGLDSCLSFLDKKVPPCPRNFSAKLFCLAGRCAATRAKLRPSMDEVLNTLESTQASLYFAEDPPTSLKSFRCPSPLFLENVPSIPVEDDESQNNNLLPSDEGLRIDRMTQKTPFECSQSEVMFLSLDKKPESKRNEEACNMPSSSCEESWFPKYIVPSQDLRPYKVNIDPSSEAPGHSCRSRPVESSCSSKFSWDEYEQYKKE", "assay": "Selectivity interaction (KinomeScan (DiscoverX)) EUB0000595a IRAK3", "conditions": "at 10 µM"}, "[2]": {"biological_target": "Ribosomal protein S6 kinase alpha-6 (Homo sapiens, UniProt Q9UK32)", "sequence (Q9UK32 whole entry)": "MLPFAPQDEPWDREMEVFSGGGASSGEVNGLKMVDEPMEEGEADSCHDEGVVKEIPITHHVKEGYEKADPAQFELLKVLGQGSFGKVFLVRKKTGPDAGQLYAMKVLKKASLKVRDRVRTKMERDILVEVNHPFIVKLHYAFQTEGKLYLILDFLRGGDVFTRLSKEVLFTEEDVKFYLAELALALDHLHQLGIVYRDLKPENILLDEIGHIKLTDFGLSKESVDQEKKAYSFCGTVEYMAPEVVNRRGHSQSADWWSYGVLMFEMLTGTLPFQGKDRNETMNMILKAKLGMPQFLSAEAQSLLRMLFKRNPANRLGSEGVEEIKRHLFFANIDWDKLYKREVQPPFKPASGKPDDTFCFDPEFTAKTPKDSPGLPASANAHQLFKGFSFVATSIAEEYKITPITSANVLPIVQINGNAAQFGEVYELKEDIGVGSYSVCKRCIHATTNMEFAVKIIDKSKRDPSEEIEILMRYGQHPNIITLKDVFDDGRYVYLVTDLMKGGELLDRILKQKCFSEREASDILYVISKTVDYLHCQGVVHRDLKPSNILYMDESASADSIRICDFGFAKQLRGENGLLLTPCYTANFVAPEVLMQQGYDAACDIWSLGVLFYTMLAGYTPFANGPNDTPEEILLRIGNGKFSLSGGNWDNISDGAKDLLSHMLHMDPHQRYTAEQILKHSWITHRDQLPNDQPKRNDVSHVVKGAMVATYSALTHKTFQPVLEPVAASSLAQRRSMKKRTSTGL", "assay": "Selectivity interaction (KinomeScan (DiscoverX)) EUB0000045b RPS6KA6", "conditions": "at 1 µM"}, "[3]": {"biological_target": "Mitogen-activated protein kinase 1 (Homo sapiens, UniProt P28482)", "sequence (P28482 whole entry)": "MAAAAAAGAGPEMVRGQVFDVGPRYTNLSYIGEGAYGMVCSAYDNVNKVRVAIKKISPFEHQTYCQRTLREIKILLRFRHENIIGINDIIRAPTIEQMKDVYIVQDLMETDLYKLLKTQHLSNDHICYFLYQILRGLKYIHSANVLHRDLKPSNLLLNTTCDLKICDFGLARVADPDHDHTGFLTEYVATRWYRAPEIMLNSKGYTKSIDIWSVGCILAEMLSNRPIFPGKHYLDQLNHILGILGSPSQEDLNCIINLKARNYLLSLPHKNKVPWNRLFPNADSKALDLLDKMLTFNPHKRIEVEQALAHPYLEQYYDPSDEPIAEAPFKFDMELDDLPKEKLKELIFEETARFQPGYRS", "assay": "Selectivity interaction (KinomeScan (DiscoverX)) EUB0000045b MAPK1"}, "[4]": {"biological_target": "T2, Atypical kinase COQ8B, mitochondrial (Homo sapiens) (UniProt Q96D53)", "T2 sequence (whole entry)": "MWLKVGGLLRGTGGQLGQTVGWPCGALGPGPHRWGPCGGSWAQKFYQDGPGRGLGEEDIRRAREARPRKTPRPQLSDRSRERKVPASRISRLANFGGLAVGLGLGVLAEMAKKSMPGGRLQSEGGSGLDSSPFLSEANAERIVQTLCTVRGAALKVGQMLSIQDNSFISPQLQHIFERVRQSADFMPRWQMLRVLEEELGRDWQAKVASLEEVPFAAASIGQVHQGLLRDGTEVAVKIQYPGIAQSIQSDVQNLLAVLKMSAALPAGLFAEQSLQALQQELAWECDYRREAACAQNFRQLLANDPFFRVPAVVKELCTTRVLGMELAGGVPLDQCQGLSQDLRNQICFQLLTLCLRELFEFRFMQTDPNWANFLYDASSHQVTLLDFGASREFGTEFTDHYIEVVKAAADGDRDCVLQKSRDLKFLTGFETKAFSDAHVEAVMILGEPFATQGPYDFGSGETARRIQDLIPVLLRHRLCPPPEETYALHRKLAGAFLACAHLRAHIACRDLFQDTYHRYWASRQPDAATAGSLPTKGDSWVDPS", "assay": "Selectivity interaction (KinomeScan (DiscoverX)) EUB0001079a ADCK4", "conditions": "at 1 µM"}, "[5]": {"biological_target": "Calcium/calmodulin-dependent protein kinase kinase 2 (Homo sapiens) (UniProt Q96RR4)", "assay": "Selectivity interaction (LanthaScreen Eu Kinase Binding Assay) EUB0001632a CAMKK2", "conditions": "at 10 µM"}, "[6]": {"biological_target": "5'-AMP-activated protein kinase catalytic subunit alpha-2 (Homo sapiens) (UniProt P54646)", "assay": "Selectivity interaction (KinomeScan (DiscoverX)) EUB0001619a PRKAA2", "conditions": "at 1 µM"}, "[7]": {"biological_target": "Casein kinase I isoform gamma-1 (Homo sapiens) (UniProt Q9HCP0)", "assay": "Selectivity interaction (KinomeScan (DiscoverX)) EUB0000607a CSNK1G1", "conditions": "at 10 µM"}, "[8]": {"tested_on": "Epidermal growth factor receptor (Homo sapiens), P00533 [G719C]", "assay": "(§1) Selectivity interaction (KinomeScan (DiscoverX)) EUB0000618a EGFR", "conditions": "at 10 µM"}, "[9]": {"tested_on": "Epidermal growth factor receptor (Homo sapiens), P00533 [UNDEFINED MUTATION]", "assay": "as §1", "conditions": "at 10 µM"}, "[10]": {"tested_on": "Epidermal growth factor receptor (Homo sapiens), P00533 [T790M]", "sequence (P00533 whole entry T790M)": "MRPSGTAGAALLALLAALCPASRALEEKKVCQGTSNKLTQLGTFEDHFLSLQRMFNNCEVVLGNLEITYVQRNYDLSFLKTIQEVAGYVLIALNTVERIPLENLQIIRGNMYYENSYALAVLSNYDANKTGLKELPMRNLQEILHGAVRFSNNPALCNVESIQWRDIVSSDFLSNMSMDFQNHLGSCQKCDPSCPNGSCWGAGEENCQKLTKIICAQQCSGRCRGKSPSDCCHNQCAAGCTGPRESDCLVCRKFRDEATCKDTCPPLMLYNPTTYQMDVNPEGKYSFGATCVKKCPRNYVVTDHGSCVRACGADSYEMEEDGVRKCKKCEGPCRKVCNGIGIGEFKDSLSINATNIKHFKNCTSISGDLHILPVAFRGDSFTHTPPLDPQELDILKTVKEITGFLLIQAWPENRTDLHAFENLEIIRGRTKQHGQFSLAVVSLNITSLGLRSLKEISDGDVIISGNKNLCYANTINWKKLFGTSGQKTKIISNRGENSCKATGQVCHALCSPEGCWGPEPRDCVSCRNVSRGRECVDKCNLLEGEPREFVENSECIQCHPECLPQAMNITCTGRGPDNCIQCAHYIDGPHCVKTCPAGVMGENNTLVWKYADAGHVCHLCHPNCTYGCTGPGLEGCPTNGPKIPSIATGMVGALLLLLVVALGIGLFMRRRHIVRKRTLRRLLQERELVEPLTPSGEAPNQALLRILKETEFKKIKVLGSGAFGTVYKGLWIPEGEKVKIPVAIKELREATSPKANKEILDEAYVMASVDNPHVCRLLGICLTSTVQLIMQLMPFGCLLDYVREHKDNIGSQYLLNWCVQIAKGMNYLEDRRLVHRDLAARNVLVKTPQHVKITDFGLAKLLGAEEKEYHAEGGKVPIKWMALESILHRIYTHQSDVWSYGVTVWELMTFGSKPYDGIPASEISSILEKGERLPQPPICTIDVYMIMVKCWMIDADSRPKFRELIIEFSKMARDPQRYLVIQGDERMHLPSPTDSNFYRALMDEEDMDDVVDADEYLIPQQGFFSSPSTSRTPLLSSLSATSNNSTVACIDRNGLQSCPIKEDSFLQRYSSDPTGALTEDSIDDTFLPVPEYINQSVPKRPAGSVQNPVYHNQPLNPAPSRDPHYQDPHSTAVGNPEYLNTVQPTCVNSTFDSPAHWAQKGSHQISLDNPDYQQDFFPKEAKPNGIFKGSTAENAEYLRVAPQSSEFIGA", "assay": "as §1", "conditions": "at 10 µM"}, "[11]": {"tested_on": "Epidermal growth factor receptor (Homo sapiens), P00533 [L858R]", "assay": "as §1", "conditions": "at 10 µM"}, "[12]": {"tested_on": "Epidermal growth factor receptor (Homo sapiens), P00533 [L858R,T790M]", "assay": "as §1", "conditions": "at 10 µM"}, "[13]": {"biological_target": "Ribosomal protein S6 kinase alpha-4 (Homo sapiens) (UniProt O75676)", "sequence (O75676 whole entry, looked up)": "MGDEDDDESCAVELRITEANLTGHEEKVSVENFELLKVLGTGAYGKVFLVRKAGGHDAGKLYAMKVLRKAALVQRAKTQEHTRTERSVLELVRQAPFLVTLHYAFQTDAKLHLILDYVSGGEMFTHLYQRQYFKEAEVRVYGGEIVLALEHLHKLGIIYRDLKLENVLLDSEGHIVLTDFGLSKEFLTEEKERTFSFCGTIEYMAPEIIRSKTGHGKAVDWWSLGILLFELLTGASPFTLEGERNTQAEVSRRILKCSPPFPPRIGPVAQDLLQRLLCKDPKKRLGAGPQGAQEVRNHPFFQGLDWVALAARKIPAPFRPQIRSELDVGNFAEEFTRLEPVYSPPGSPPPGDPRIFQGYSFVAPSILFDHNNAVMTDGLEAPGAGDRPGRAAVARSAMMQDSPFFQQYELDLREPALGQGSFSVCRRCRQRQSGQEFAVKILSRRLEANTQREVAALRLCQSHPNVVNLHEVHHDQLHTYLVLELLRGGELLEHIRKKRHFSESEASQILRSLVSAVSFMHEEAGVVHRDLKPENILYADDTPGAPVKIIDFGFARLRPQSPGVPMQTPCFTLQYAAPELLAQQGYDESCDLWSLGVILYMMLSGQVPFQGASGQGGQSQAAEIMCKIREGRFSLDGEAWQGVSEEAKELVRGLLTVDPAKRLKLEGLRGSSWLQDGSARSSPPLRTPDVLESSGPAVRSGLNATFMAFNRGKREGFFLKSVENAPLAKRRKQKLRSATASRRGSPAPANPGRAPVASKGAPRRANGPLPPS", "assay": "Selectivity interaction (ActivX KiNativ screen (kinase selectivity in THP-1 cell lysates)) EUB0000639a RPS6KA4", "format": "subcellular", "conditions": "lysate"}, "[14]": {"biological_target": "LIM domain kinase 1 (Homo sapiens) (UniProt P53667)", "assay": "Selectivity interaction (KinomeScan (DiscoverX)) EUB0000655a LIMK1", "conditions": "at 10 µM"}, "[15]": {"biological_target": "ALK tyrosine kinase receptor (Homo sapiens, UniProt Q9UM73)", "sequence (Q9UM73 19-1620 limits assumed)": "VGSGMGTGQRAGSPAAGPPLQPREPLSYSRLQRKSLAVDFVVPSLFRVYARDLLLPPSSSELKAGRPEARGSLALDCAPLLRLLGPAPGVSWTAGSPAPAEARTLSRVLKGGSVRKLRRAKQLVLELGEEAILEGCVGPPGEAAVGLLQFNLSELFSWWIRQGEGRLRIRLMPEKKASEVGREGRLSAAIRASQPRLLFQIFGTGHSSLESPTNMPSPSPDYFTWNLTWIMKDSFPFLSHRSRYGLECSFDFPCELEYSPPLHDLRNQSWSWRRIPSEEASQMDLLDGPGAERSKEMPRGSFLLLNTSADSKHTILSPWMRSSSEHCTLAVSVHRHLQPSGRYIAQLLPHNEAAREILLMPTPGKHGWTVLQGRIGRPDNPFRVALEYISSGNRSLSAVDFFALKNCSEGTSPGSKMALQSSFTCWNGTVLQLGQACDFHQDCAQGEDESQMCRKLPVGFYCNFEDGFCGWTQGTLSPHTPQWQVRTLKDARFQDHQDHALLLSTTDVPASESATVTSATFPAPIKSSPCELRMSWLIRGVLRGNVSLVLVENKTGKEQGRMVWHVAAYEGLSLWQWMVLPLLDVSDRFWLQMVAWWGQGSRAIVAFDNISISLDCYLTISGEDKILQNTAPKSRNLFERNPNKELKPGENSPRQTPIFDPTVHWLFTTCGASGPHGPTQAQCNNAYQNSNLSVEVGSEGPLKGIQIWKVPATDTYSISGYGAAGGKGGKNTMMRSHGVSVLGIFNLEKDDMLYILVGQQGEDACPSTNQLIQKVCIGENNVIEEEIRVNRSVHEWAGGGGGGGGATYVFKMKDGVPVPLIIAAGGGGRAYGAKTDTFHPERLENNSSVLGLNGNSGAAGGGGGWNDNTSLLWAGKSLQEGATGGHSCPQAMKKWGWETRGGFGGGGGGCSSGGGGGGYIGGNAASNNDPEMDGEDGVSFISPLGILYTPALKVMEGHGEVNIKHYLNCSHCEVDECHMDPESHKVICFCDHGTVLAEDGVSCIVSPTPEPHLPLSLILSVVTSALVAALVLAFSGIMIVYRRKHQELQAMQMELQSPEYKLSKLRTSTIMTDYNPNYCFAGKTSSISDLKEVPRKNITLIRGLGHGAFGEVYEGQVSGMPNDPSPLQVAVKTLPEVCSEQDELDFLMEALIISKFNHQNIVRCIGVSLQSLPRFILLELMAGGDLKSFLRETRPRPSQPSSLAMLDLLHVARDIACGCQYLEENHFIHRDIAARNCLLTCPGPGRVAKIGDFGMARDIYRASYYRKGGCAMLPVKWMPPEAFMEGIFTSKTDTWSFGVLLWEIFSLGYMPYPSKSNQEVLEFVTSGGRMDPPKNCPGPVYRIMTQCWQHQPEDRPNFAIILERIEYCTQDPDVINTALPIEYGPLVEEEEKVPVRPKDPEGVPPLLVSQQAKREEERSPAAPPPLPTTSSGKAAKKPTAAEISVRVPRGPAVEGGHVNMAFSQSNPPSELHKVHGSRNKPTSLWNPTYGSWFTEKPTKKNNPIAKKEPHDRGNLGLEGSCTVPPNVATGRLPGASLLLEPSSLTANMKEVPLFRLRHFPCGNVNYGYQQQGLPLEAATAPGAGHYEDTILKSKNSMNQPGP", "conditions": "at 10 µM"}, "[16]": {"biological_target": "Cyclin-dependent kinase 3 (Homo sapiens) (UniProt Q00526)", "sequence (Q00526 whole entry, looked up)": "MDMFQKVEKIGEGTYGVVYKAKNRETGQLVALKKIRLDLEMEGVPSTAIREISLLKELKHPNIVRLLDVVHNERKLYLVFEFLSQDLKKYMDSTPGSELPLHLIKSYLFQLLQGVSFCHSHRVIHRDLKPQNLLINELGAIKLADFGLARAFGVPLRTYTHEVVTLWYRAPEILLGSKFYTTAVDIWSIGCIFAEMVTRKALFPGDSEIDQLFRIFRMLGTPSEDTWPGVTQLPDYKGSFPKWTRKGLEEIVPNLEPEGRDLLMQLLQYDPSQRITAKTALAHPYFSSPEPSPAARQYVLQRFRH", "assay": "Selectivity interaction (Ambit KINOMEscan and KiNATiv profiling in Jurkat cells) EUB0000090b CDK3", "format": "cell-based", "conditions": "at 1 µM"}},
  "data": [
    {"compound": "COCC(=O)NC/C=C/c1ccc2ncnc(Nc3ccc(Oc4ccc(C)nc4)c(C)c3)c2c1", "note": "[CP-724714]", "values": [
      {"measurement": "% of control", "setting": "[1]", "result": 82, "unit": "%"}
    ]},
    {"compound": "C=CC(=O)Nc1cc(-n2c(=O)ccc3cnc4ccc(-c5ccc(NS(C)(=O)=O)cc5)cc4c32)ccc1C", "values": [
      {"measurement": "% of control", "setting": "[2]", "result": 56, "unit": "%"},
      {"measurement": "% of control", "setting": "[3]; at 1 µM", "result": 94, "unit": "%"},
      {"measurement": "% of control", "setting": "[3]; at 10 µM", "result": 100, "unit": "%"}
    ]},
    {"compound": "Nc1cnc(N2CCc3cc(S(=O)(=O)Nc4c(F)cc(Cl)cc4F)cc(N4CCCC4=O)c32)nc1", "note": "[TP-020n]", "values": [
      {"measurement": "% of control", "setting": "[4]", "result": 100, "unit": "%"}
    ]},
    {"compound": "Cn1cc(-n2cnc3c(NCc4nc5cc(Cl)c(Cl)cc5[nH]4)nc(N4CCOCC4)nc32)cn1", "values": [
      {"measurement": "% of inhibition", "setting": "[5]", "result": -0.213, "unit": "%"}
    ]},
    {"compound": "N#Cc1cccc(-c2c[nH]c3ncnc(N4CCOCC4)c23)c1", "values": [
      {"measurement": "% of control", "setting": "[6]", "result": 22, "unit": "%"}
    ]},
    {"compound": "CNC(=O)Nc1ccc(-c2nc(N3CC4CCC(C3)O4)c3cnn(C4CCC5(CC4)OCCO5)c3n2)cc1", "values": [
      {"measurement": "% of control", "setting": "[7]", "result": 54, "unit": "%"}
    ]},
    {"compound": "O[C@H]1CC[C@H](Nc2ncc3nc(Nc4c(F)cc(F)cc4F)n([C@H]4CCOC4)c3n2)CC1", "values": [
      {"measurement": "% of control", "setting": "[8]", "result": 20, "unit": "%"},
      {"measurement": "% of control", "setting": "[9]", "result": 7.4, "unit": "%"},
      {"measurement": "% of control", "setting": "[10]", "result": 72, "unit": "%"},
      {"measurement": "% of control", "setting": "[11]", "result": 17, "unit": "%"},
      {"measurement": "% of control", "setting": "[12]", "result": 85, "unit": "%"}
    ]},
    {"compound": "CC[C@@H]1[C@H](F)C(=O)N[C@@H]1COc1nccc2cc(C(N)=O)c(OC)cc12", "note": "[ZIMLOVISERTIB]", "values": [
      {"measurement": "% of inhibition", "setting": "[13]; at 0.01 µM", "result": -4.6, "unit": "%"},
      {"measurement": "% of inhibition", "setting": "[13]; at 0.04 µM", "result": -2.6, "unit": "%"},
      {"measurement": "% of inhibition", "setting": "[13]; at 0.2 µM", "result": -18.1, "unit": "%"},
      {"measurement": "% of inhibition", "setting": "[13]; at 1 µM", "result": -20.7, "unit": "%"},
      {"measurement": "% of inhibition", "setting": "[13]; at 5 µM", "result": -27.3, "unit": "%"}
    ]},
    {"compound": "CN(C)CCOc1ccc(-c2nc(-c3ccncc3)c(-c3ccc4c(c3)CC/C4=N\\O)[nH]2)cc1", "values": [
      {"measurement": "% of control", "setting": "[14]", "result": 100, "unit": "%"}
    ]},
    {"compound": "CCN(CC)CCCCNc1ncc2cc(-c3cc(OC)cc(OC)c3)c(NC(=O)NC(C)(C)C)nc2n1", "values": [
      {"measurement": "% of control", "setting": "[15]", "result": 100, "unit": "%"}
    ]},
    {"compound": "CN(C)C/C=C/C(=O)Nc1ccc(C(=O)N2CCCC(Nc3ncc(Cl)c(-c4c[nH]c5ccccc45)n3)C2)cc1", "note": "(stereo unspecified)", "values": [
      {"measurement": "% of control", "setting": "[16]", "result": 97, "unit": "%"}
    ]}
  ]
}
